Test results reported in US6919362B2, “Heterocyclic derivatives, preparation method and pharmaceutical compositions containing same” (Les Laboratoires Servier, priority 2000, dated 2005).
Blank lines part the entries; values can stand above or below the compound they belong to.

How the values were obtained:
[1] = tested on: ob/ob mouse; experiment: Antidiabetic and hypolipidaemic effect in the ob/ob mouse; type: in vivo; settings: for reduction of glycaemia: glycaemia 24 hours after the final administration
Text: Mutations in laboratory animals and also different sensitivities to dietary regimens have allowed the development of animal models having non-insulin dependent diabetes and hyperlipidaemia associated with obesity and with resistance to insulin.
Genetic mice models (ob/ob) (Diabetes, 1982, 31 (1), 1-6) and Zucker (fa/fa) rats have been developed by various laboratories in order to understand the physiopathology of those diseases and test the effectiveness of new antidiabetic compounds (Diabetes, 1983, 32, 830-838).
The 10-week-old female ob/ob mouse (Harlan) is used for the in vivo tests. The animals are kept in a light-darkness cycle of 12 hours at 25° C. The mouse has a basal hyperglycaemia of 2 g/l. The animals are randomly selected in terms of their glycaemia to form groups of six. The compounds tested by the intraperitoneal route are dissolved in a mixture of dimethyl sulphoxide (10%) and solutol (15%) to be administered at 10 mg/kg in a volume of 2.5 ml/kg twice per day for four days. By the per os route, the compounds are tested at 30 mg/kg administered in a volume of 2.5 ml/kg of 1%, HEC twice per day for four days. The control groups receive the solvents under the same conditions as the treated groups. The activity of the products is evaluated by measuring glycaemia 24 hours after the final administration and by measuring body weight daily.

SMILES: COC(=O)C(Cc1ccc(OCCn2c(=O)sc3cc(C(=O)c4ccccc4)ccc32)cc1)C(=O)OC [Example 18, Dimethyl 2-{4-[2-(6-benzoyl-2-oxo-1,3-benzothiazol-3(2H)-yl)-ethoxy]benzyl}malonate]
reduction of glycaemia ([1]; 10 mg/kg i.p. twice per day for four days): 45%
reduction of glycaemia ([1]; 30 mg/kg per os twice per day for four days): 43%

melting point: 186 to 190 °C
SMILES: COC(=O)C(=Cc1ccc(OCCn2c(=O)sc3cc(NC(=O)c4ccccc4)ccc32)cc1)C(=O)OC [Example 76, Dimethyl 2-{4-[2-(6-(benzoylamino)-2-oxo-1,3-benzothiazol-3(2H)-yl)ethoxy]benzylidene}malonate]

melting point: 102 to 105 °C
SMILES: COC(=O)C(=Cc1ccc(OCCn2c(=O)sc3cc(C(=O)Nc4ccccc4)ccc32)cc1)C(=O)OC [Example 84, Dimethyl 2-{4-[2-(6-(anilinocarbonyl)-2-oxo-1,3-benzothiazol-3(2H)-yl)ethoxy]benzylidene}malonate]

SMILES: CN(CCOc1ccc(CC2SC(=O)NC2=O)cc1)c1ccccn1 (centres unmarked) [rosiglitazone, reference compound]
variation in body weight ([1]; ob/ob mouse, in four days, body weight measured daily): +4%
